In series [1] the test system is CD11b+ CD11c+ MHCII- nonclassical monocytes. Briefly: Mouse DSS model of colitis: circulating non-classical monocytes by FACS. The following applies: 100 mg/kg QD day 7–14. The format is in vivo. As for the experimental part:
(§1) On day 0, super prophylactic dosing of compound 2 began on C57BL/6 female mice. […] At this time compound 3 dosing initiated. […] Statistical analyses of in-vivo pharmacodynamic and efficacy data were performed as follows. D'Agostino & Pearson normality test was first used to test data for Gaussian distribution. If all groups passed normality test, a One-way ANOVA was used with Dunnett’s multiple comparisons test to compare treatment groups to Vehicle group. If not all groups passed normality test, a Kruskal-Wallis nonparametric ANOVA was used, with Dunn’s multiple comparison test to compare treatment groups to Vehicle group. Levels of significance compared to Vehicle are annotated as follows: * = p<0.05, ** = p<0.01, *** = p<0.001, **** = p < 0.0001. Optimal number of mice per group was determined using power analysis; N = 10 mice per group at 80% power predicts statistically significant detection of ≥ ~40% reduction in colon IBA1+ and ≥ ~75% reduction in colon erosion length comparing treatment groups to Vehicle group. Naïve groups were omitted from statistical analyses.
Background: A flow cytometer gives signals particle by particle.

Series [2] has as its system murine colitis. On the set-up: method as in earlier work. Particulars: cited from earlier work.
Series [3] has as its system IBA1+ macrophages in the colon. The series can be described thus: Mouse DSS model of colitis: colon macrophages by image analysis. In kind it is in vivo. The following applies: 100 mg/kg QD day 7–14. On the procedure:
as §1

Series [4] concerns rheumatoid arthritis. Set-up: method as in PMID 26233509. Particulars: DMARD-refractory active RA patients; cited from earlier work.
The nature of series [5]: Plasma stability in vitro. In kind it is in vitro ADME, mouse.
The target of series [6] is CSF1R (Homo sapiens, UniProt P07333). Briefly: CSF1R enzyme activity (TR-FRET binding displacement, kinase panel). On the procedure: TR-FRET-based binding displacement studies using active site probes were used to assess kinome selectivity of inhibitor molecules.[54] The concentrations of components for each purified kinase were based on optimized conditions with ranges as follows: kinases (1.25–12.5 nM), Oregon Green-labeled fluorescent probes (2x KD of probe to the particular kinase; range of 1–200 nM; in-house), terbium anti-His or anti-GST antibody (0.5–2 nM). The reaction buffer was diluted to 1x using ddH2O and contained 1 mM DTT.
Chain of CSF1R (P07333 20-972): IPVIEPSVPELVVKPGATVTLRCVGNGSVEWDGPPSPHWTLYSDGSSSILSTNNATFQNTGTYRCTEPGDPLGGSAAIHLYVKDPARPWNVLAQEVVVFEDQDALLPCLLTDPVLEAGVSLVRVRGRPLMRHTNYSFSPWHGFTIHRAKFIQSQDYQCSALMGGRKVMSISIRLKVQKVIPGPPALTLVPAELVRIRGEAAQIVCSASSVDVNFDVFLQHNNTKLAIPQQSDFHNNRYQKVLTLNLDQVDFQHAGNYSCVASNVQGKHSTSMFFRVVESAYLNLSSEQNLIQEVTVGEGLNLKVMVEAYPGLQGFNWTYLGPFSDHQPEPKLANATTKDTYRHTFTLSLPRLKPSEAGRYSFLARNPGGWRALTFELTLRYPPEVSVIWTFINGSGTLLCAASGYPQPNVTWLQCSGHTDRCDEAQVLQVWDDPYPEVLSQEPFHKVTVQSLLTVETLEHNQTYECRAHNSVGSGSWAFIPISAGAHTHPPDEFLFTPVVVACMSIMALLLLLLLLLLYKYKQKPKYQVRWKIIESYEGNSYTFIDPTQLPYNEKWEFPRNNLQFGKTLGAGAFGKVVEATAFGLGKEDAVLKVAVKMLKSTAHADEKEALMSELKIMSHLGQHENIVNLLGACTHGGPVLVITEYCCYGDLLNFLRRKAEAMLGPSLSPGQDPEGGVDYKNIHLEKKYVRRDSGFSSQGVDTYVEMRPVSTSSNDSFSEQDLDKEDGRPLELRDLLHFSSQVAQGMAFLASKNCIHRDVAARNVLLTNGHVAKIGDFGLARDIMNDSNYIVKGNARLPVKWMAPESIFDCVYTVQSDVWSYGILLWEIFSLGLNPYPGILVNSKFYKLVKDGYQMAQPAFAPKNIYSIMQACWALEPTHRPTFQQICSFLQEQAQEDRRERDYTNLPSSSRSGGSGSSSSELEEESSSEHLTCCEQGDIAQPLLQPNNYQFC
Compounds were typically tested from 0.0001 to 10 μM in 10x dilutions. Reactions were carried out in a 20 μL volume in 384-well plates by combining kinase, probe, antibody, and test compound and allowing the reaction to come to equilibrium (incubation of 2 h). TR-FRET was then measured on a PerkinElmer Envision plate reader (excitation at 340 nm; emission at 520 and 495 nm). Competition by the test compound versus the fluorescent probe for the ATP binding site of the kinase was quantified by calculating the IC50 value based on a four-parameter logistic curve fit.

The nature of series [7]: PK experiment dosing hemi-succinate 15 IV or PO. In kind it is in vivo, mouse. The following applies: IV or PO 1 mg/kg; 0.5 to 12 h.

In the case of `CC1(C)CC=C(c2nc(C3CC(C)(C)OC(C)(C)C3)ccc2NC(=O)c2nc(C#N)c[nH]2)CC1` [Compound 3], in series [1], the “Depletion of CD11b+ CD11c+ MHCII- nonclassical monocytes” value was 94%. The “Clinical and histopathological disease readouts” value in series [2] is “reduction in clinical and histopathological disease readouts”. Also, in series [3], the “Depletion of macrophages (IBA1+) in the colon” value was 76%. Moreover, the “Efficacy in Phase II trial” value in series [4] is “lack of efficacy”.
Take `O=C(O)CCC(=O)O[C@H]1CC[C@H](n2cc(Nc3nc(C4CCCCC4)cn4ncnc34)cn2)CC1` [Compound 15, 4-(((1r,4r)-4-(4-((6-Cyclohexyl-[1,2,4]triazolo[1,5-a]pyrazin-8-yl)amino)-1H-pyrazol-1-yl)cyclohexyl)oxy)-4-oxobutanoic acid]: the Stability in plasma result in series [5] is “not stable in mouse plasma in vitro”. Also, in series [6], the “CSF1R enzyme activity inhibition” value is given as “able to inhibit CSF1R enzyme activity”. In addition, the “Plasma levels of 15” value in series [7] is listed as “no detectable plasma levels of 15”.

The values above are taken from publication PMC6128612, “Prodrugs for colon-restricted delivery: Design, synthesis, and in vivo evaluation of colony stimulating factor 1 receptor (CSF1R) inhibitors” (PLoS ONE, 2018).
